Test results from US8716242B2, “β-hairpin peptidomimetics” (priority 2009, dated 2014).
Numbered stars: 1 amine (or outer) side, 2 acyl side, 3 side chain; on linkers, the order of the positions; unused ones are H or OH. Bridge positions count the residues as written; N and C are the ends. Square brackets hold non-standard residues; d marks the D form. Side chains are listed from the residue outwards. Peptide text beside a SMILES is read from it. * marks the point of attachment. Cholyl = C[C@H](CCC(=O)*)[C@H]1CC[C@H]2[C@@H]3[C@H](O)C[C@@H]4C[C@H](O)CC[C@]4(C)[C@H]3C[C@H](O)[C@]12C; Adamantane1carbonyl = O=C(C12CC3CC(CC(C3)C1)C2)*; Hexadecanoyl(16-OH) = O=C(CCCCCCCCCCCCCCCO)*; X1 = O=C([C@H]1C[C@H](N[*:3])CN1[*:1])[*:2]; NH(1-Adamantyl) = C1C2CC3CC1CC(N*)(C2)C3; Gly(decyl) = CCCCCCCCCC[C@H](N)C(=O)O; Myristoyl = CCCCCCCCCCCCCC(=O)*; Octanoyl = CCCCCCCC(=O)*; Dab = NCC[C@H](N)C(=O)O

What was measured:
[1] = Cytotoxicity, MTT reduction assay, COS-7 cells; assay type: cell-based; settings: 48 h, 12.5-50 μM
Method: (§1) Mouse pre-B cells were cultured in RPMI1640 plus 5% FBS, antibiotic/antimycotic, non essential amino acid, 50 μM β-mercaptoethanol and 1 mM natrium pyruvate. HELA cells were maintained in RPMI1640 plus 10% FBS, pen/strept and 2 mM L-glutamine. Cos-7 cells were grown in DMEM medium with […] glucose supplemented with 10% FCS, pen/strept and 2 mM L-glutamine. All cell lines were grown at 37° C. at 5% CO2. Cell media, media supplements, PBS-buffer, HEPES, antibiotic/antimycotic, pen/strept, non essential amino acid, L-glutamine, β-mercaptoethanol and sera were purchased from Gibco (Pailsey, UK). All fine chemicals were supplied by Merck (Darmstadt, Germany).
(§2) The cytotoxicity of the peptides to HELA cells (Acc57) and COS-7 cells (CRL-1651) was determined using the MTT reduction assay (T. Mossman, J. Immunol. Meth. 1983, 65, 55-63; M. V. Berridge, A. S. Tan, Arch. Biochem. Biophys. 1993, 303, 474-482). Briefly, the method was as follows: 4000 HELA cells/well and 3400 COS-7 cells/well were seeded and grown in 96-well microtiter plates for 24 h at 37° C. at 5% CO2. Thereafter, time zero (Tz) was determined by MTT reduction (see below). The supernatant of the remaining wells was discarded, and fresh medium and compounds in serial dilutions (12.5, 25 and 50 μM, triplicates) were pipetted into the wells. After incubation of the cells for 48 h at 37° C. at 5% CO2 the supernatant was discarded again and 100 μL MTT reagent (0.5 mg/mL in RPMI1640 and DMEM, respectively)/well was added. Following incubation at 37° C. for 2-4 h the media were aspirated and the cells were spiked (100 μL isopropanol/well). The absorbance of the solubilized formazan was measured at 595 nm (OD595peptide). For each concentration averages were calculated from triplicates. The percentage of growth was calculated as follows: (OD595peptide-OD595Tz-OD595Empty well)/(OD595Tz-OD595Empty well)×100%. The GI50 (Growth Inhibition) concentrations were calculated for each peptide by using a trend line function for the concentrations (50, 25, 12.5 and 0 μM), the corresponding percentages and the value 50, (=TREND (C50: C0, %50:%0,50).

[2] = Cytotoxicity, MTT reduction assay, HELA cells; assay type: cell-based; settings: 48 h, 12.5-50 μM
Method: as §1, §2

[3] = Plasma stability in human plasma; assay type: in vitro ADME; settings: human plasma, 37° C.; for remaining at 24 h, 10 μM: 1440 min, read-out: human pl. cpd left at 1440 min; for half-life / human pl. T1/2: up to 1440 min; for half-life: read-out: human pl. T1/2
Method: (§3) Percent hemolysis was calculated as follows: (OD540peptide/OD540H2O)×100%. 2.6. Plasma Stability
(§4) The stability of the peptides in human and mouse plasma was determined by applying the following method: 346.5 μL/deep well of freshly thawed human plasma (Basler Blutspendedienst) and mouse plasma (Harlan Sera-Lab, UK), respectively, were spiked with 3.5 μL/well of compound dissolved in DMSO/H2O ([…] [v/v], 1 mM, triplicate) and incubated at 37° C. At t=0, 15, 30, 60, 120, 240 and 1440 min aliquots of 50 μL were transferred to filtration plate wells containing 150 μL/well of 2% formic acid in acetonitrile. Following shaking for 2 min the occurred suspensions were filtrated by vacuum and 50 μL of each filtrate was mixed with 100 μL of 1% formic acid in H2O. After transfer to a propylene microtiter plate, the filtrates were analyzed by LC/MS as follows: Column: Waters, XBridge C18, mobile phases: (A) water+0.1% formic acid and (B) acetonitrile/water, 95/5 (v/v)+0.1% formic acid, gradient: 5%-100% (B) in 2 minutes, electrospray ionization, MRM detection (triple quadrupole). The peak areas were determined and triplicate values are averaged. The stability is expressed in percent of the initial value at t=0. (tx/t0×100). By using the TREND function of EXCEL (Microsoft Office 2003) T1/2 were determined.

[4] = Plasma stability in mouse plasma; assay type: in vitro ADME; settings: mouse plasma, 37° C.; for remaining at 24 h, 10 μM: 1440 min, read-out: mouse pl. cpd left at 1440 min; for mouse pl. T1/2: up to 1440 min
Method: as §3, §4

Row | Compound | GI50 ([1]; COS-7 cells) [µM] | GI50 ([2]; HELA cells) [µM] | remaining at 24 h, 10 μM [3] [%] | half-life [3] [h] | GI50 [1] [µM] | remaining at 24 h, 10 μM [4] [%] | mouse pl. T1/2 [4] [h] | GI50 [2] [µM] | human pl. T1/2 [3] [h]
1 | CCCCCCCC(=O)NCCCC[C@@H]1NC(=O)[C@H](CCC(N)=O)NC(=O)[C@H](Cc2ccc(O)cc2)NC(=O)[C@@H]2CSSC[C@H](NC(=O)[C@H](Cc3ccc(O)cc3)NC(=O)[C@H](CCCNC(=N)N)NC(=O)[C@H](Cc3ccc(O)cc3)NC(=O)[C@@H]3CCCN3C(=O)[C@H]3CCCN3C1=O)C(=O)N[C@@H](CO)C(=O)N[C@@H](C)C(=O)N1CCC[C@@H]1C(=O)N[C@@H](CCN)C(=O)N[C@@H](CCCNC(=N)N)C(=O)N[C@@H](Cc1ccc(O)cc1)C(=O)N2 [Ex. 32] (cyclo(YRYCSA[dP][Dab]RYCYQK(Octanoyl)[dP]P); disulfide 4-11) | > 50 | > 24 | 39 | 12.9 | – | – | – | – | –
2 | C[C@@H]1NC(=O)[C@H](CO)NC(=O)[C@@H]2CSSC[C@H](NC(=O)[C@H](Cc3ccc(O)cc3)NC(=O)[C@H](CCCNC(=N)N)NC(=O)[C@H](CCN)NC(=O)[C@H]3CCCN3C1=O)C(=O)N[C@@H](Cc1ccc(O)cc1)C(=O)N[C@@H](CCCCNC(=O)CCCCCCCCCCCCCCCO)C(=O)N[C@@H](CCCCN)C(=O)N1CCC[C@@H]1C(=O)N1CCC[C@H]1C(=O)N[C@@H](Cc1ccc(O)cc1)C(=O)N[C@@H](Cc1c[nH]cn1)C(=O)N[C@@H](Cc1ccc(O)cc1)C(=O)N2 [Ex. 21] (cyclo(YHYCSA[dP][Dab]RYCYK(Hexadecanoyl(16-OH))K[dP]P); disulfide 4-11) | – | – | 49 | 18.6 | > 50 | 63 | 24 | > 50 | –
3 | CCCCCCCCCC[C@@H]1NC(=O)[C@H](Cc2ccc(O)cc2)NC(=O)[C@@H]2CSSC[C@H](NC(=O)[C@H](Cc3ccc(O)cc3)NC(=O)[C@H](Cc3c[nH]cn3)NC(=O)[C@H](Cc3ccc(O)cc3)NC(=O)[C@@H]3CCCN3C(=O)[C@H]3CCCN3C(=O)[C@H](CCCCN)NC1=O)C(=O)N[C@@H](CCCNC(=N)N)C(=O)N[C@@H](C)C(=O)N1CCC[C@@H]1C(=O)N[C@@H](CCN)C(=O)N[C@@H](CCCNC(=N)N)C(=O)N[C@@H](Cc1ccc(O)cc1)C(=O)N2 [Ex. 8] (cyclo(YHYCRA[dP][Dab]RYCY[Gly(decyl)]K[dP]P); disulfide 4-11) | > 44 | > 26 | 79 | – | – | 82 | 24 | – | 24
4 | C[C@@H](O)[C@@H]1NC(=O)[C@H](Cc2c[nH]cn2)NC(=O)[C@H](Cc2ccc(O)cc2)NC(=O)[C@@H]2CCCN2C(=O)[C@H]2CCCN2C(=O)[C@H](CCC(N)=O)NC(=O)[C@H](CCC(=O)NC23CC4CC(CC(C4)C2)C3)NC(=O)[C@H](Cc2ccc(O)cc2)NC(=O)[C@@H]2CSSC[C@H](NC1=O)C(=O)N[C@@H](CCCNC(=N)N)C(=O)NCC(=O)N1CCC[C@@H]1C(=O)N[C@@H](CCN)C(=O)N[C@@H](CCCNC(=N)N)C(=O)N[C@@H](Cc1ccc(O)cc1)C(=O)N2 [Ex. 31] (cyclo(YHTCRG[dP][Dab]RYCYE(NH(1-Adamantyl))Q[dP]P); disulfide 4-11) | – | – | 68 | – | > 50 | – | – | > 37 | 24
5 | C[C@@H]1NC(=O)[C@H](CO)NC(=O)[C@@H]2CSSC[C@H](NC(=O)[C@H](Cc3ccc(O)cc3)NC(=O)[C@H](CCCNC(=N)N)NC(=O)[C@H](CCN)NC(=O)[C@H]3CCCN3C1=O)C(=O)N[C@@H](Cc1ccc(O)cc1)C(=O)N[C@@H](CCC(N)=O)C(=O)N[C@@H](CCCCNC(=O)CNC(=O)CC[C@@H](C)[C@H]1CC[C@H]3[C@@H]4[C@H](O)C[C@@H]5C[C@H](O)CC[C@]5(C)[C@H]4C[C@H](O)[C@]13C)C(=O)N1CCC[C@@H]1C(=O)N1CCC[C@H]1C(=O)N[C@@H](Cc1ccc(O)cc1)C(=O)N[C@@H](CCCNC(=N)N)C(=O)N[C@@H](Cc1ccc(O)cc1)C(=O)N2 [Ex. 33] (cyclo(YRYCSA[dP][Dab]RYCYQK([Gly-Cholyl])[dP]P); disulfide 4-11) | > 50 | > 18 | 61 | 20.4 | – | – | – | – | –
6 | C[C@@H](O)[C@@H]1NC(=O)[C@H](Cc2c[nH]cn2)NC(=O)[C@H](Cc2ccc(O)cc2)NC(=O)[C@@H]2CCCN2C(=O)[C@H]2CCCN2C(=O)[C@H](CCC(=O)NC23CC4CC(CC(C4)C2)C3)NC(=O)[C@H](CCC(N)=O)NC(=O)[C@H](Cc2ccc(O)cc2)NC(=O)[C@@H]2CSSC[C@H](NC1=O)C(=O)N[C@@H](CCCNC(=N)N)C(=O)NCC(=O)N1CCC[C@@H]1C(=O)N[C@@H](CCN)C(=O)N[C@@H](CCCNC(=N)N)C(=O)N[C@@H](Cc1ccc(O)cc1)C(=O)N2 [Ex. 36] (cyclo(YHTCRG[dP][Dab]RYCYQE(NH(1-Adamantyl))[dP]P); disulfide 4-11) | – | – | 53 | 23.2 | > 50 | – | – | > 50 | –
7 | C[C@@H](O)[C@@H]1NC(=O)[C@H](Cc2c[nH]cn2)NC(=O)[C@H](Cc2ccc(O)cc2)NC(=O)[C@@H]2CCCN2C(=O)[C@H]2CCCN2C(=O)[C@H](CCCCNC(=O)C23CC4CC(CC(C4)C2)C3)NC(=O)[C@H](CCC(N)=O)NC(=O)[C@H](Cc2ccc(O)cc2)NC(=O)[C@@H]2CSSC[C@H](NC1=O)C(=O)N[C@@H](CCCNC(=N)N)C(=O)NCC(=O)N1CCC[C@@H]1C(=O)N[C@@H](CCN)C(=O)N[C@@H](CCCNC(=N)N)C(=O)N[C@@H](Cc1ccc(O)cc1)C(=O)N2 [Ex. 35] (cyclo(YHTCRG[dP][Dab]RYCYQK(Adamantane1carbonyl)[dP]P); disulfide 4-11) | – | – | 63 | – | > 30 | – | – | > 50 | 24
8 | CCCCCCCCCCCCCC(=O)N[C@H]1C[C@@H]2C(=O)N[C@@H](CCN)C(=O)N[C@@H](CCCNC(=N)N)C(=O)N[C@@H](Cc3ccc(O)cc3)C(=O)N[C@H]3CSSC[C@H](NC(=O)[C@H]([C@@H](C)O)NC(=O)[C@H](Cc4c[nH]cn4)NC(=O)[C@H](Cc4ccc(O)cc4)NC(=O)[C@@H]4CCCN4C(=O)[C@H]4CCCN4C(=O)[C@H](CCC(N)=O)NC(=O)[C@H](CCC(N)=O)NC(=O)[C@H](Cc4ccc(O)cc4)NC3=O)C(=O)N[C@@H](CCCNC(=N)N)C(=O)NCC(=O)N2C1 [Ex. 4] (cyclo(YHTCRG[X1](Myristoyl)[Dab]RYCYQQ[dP]P); disulfide 4-11) | > 50 | > 50 | 66 | 5.25 | – | 62 | 24 | – | –
